Molecular target: T1, human PTH1 receptor (Homo sapiens, UniProt Q03431)
T1 sequence (Q03431 27-593): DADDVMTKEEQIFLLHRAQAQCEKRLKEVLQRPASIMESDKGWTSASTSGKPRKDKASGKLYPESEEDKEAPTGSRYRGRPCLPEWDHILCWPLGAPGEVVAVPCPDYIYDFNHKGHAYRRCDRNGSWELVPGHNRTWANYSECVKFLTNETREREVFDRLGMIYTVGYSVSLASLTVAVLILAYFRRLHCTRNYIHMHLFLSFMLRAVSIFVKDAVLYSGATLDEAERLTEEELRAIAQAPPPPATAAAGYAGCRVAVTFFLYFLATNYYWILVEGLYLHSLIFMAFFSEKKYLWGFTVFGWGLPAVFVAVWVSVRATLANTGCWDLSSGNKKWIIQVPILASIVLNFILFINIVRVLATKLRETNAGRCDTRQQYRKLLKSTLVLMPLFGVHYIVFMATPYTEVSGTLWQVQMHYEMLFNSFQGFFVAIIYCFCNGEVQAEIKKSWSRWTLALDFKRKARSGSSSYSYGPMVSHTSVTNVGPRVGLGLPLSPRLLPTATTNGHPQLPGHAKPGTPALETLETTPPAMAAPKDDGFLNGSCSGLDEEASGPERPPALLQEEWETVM
Assay: In vitro cAMP signal activity in HKRK-B7 cells (LLC-PK1 cells overexpressing the human PTH1 receptor)
Assay type: cell-based
Conditions: 0.1 µM

With `Cc1cc2ccc1CCS(=O)(=O)N1CCC3(CC1)N=C(NC3=O)c1cc(cc(C(F)(F)F)c1)OCC(F)(F)C(F)(F)C(F)(F)COCCN(C)C2=O` [Compound 1441] the “cAMP production activity (%)” value was 5.0%.

Same assay, conditions: HKRK-B7 cells; compound at 1×10^−3 M; cAMP produced as percentage of that produced by hPTH(1-34) at 100 nM

Point of comparison: `CCc1cc(NC(C)=O)ccc1/C=C/S(=O)(=O)N1CCC2(CC1)N=C(C1CCC(C)CC1)NC2=O` (stereo not shown) [Compound 510, N-(3-ethyl-4-{(E)-2-[2-(4-methyl-cyclohexyl)-4-oxo-1,3,8-triaza-spiro[4.5]dec-1-ene-8-sulfonyl]-vinyl}-phenyl)-acetamide], “cAMP production activity (%)” value 57%. Against it:
- Cc1cc(S(=O)(=O)Nc2cccnc2)ccc1/C=C/S(=O)(=O)N1CCC2(CC1)N=C(c1cccc(C(F)(F)F)c1)NC2=O [Compound 219, 3-methyl-4-{(E)-2-[4-oxo-2-(3-trifluoromethyl-phenyl)-1,3,8-triaza-spiro[4.5]dec-1-ene-8-sulfonyl]-vinyl}-N-pyridin-3-yl-benzenesulfonamide] — higher, 60%
- O=C(OCc1ccccc1)N1CCCC(C2=NC3(CCN(S(=O)(=O)CCc4cccc5ccccc45)CC3)C(=O)N2)C1 (stereo not shown) [Compound 464, 3-[8-(2-naphthalen-1-yl-ethanesulfonyl)-4-oxo-1,3,8-triaza-spiro[4.5]dec-1-en-2-yl]-piperidine-1-carboxylic acid benzyl ester] — lower, 54%
- [2H]C([2H])([2H])C([2H])(Oc1ccc(C2=NC3(CCN(S(=O)(=O)/C=C/c4c(C)cc(C(=O)N5CCC(C)(O)CC5)cc4C)CC3)C(=O)N2)cc1C(F)(F)F)C([2H])([2H])[2H] [Compound 1222, 8-{(E)-2-[4-(4-hydroxy-4-methyl-piperidine-1-carbonyl)-2,6-dimethyl-phenyl]-ethenesulfonyl}-2-(4-[1,2,2,2,2,2,2-^2H7]isopropoxy-3-trifluoromethyl-phenyl)-1,3,8-triaza-spiro[4.5]dec-1-en-4-one] — higher, 77%
- Cc1c(O)cccc1/C=C/S(=O)(=O)N1CCC2(CC1)N=C(c1cccc(OC(F)(F)F)c1)NC2=O [Compound 226, 8-[(E)-2-(3-Hydroxy-2-methyl-phenyl)-ethenesulfonyl]-2-(3-trifluoromethoxy-phenyl)-1,3,8-triaza-spiro[4.5]dec-1-en-4-one] — higher, 83%
- Cc1cc(C(=O)N2CCC(O)CC2)cc(C)c1CC(F)(F)S(=O)(=O)N1CCC2(CC1)N=C(c1cccc(OC(F)(F)F)c1)NC2=O [Compound 1101, 8-{1,1-Difluoro-2-[4-(4-hydroxy-piperidine-1-carbonyl)-2,6-dimethyl-phenyl]-ethanesulfonyl}-2-(3-trifluoromethoxy-phenyl)-1,3,8-triaza-spiro[4.5]dec-1-en-4-one] — higher, 110%
- CC(=O)NCc1cc(C)c(CCS(=O)(=O)N2CCC3(CC2)N=C(C2CCC(C)CC2)NC3=O)c(C)c1 (stereo not shown) [Compound 773, N-(3,5-dimethyl-4-{2-[2-(4-methyl-cyclohexyl)-4-oxo-1,3,8-triaza-spiro[4.5]dec-1-ene-8-sulfonyl]-ethyl}-benzyl)-acetamide] — higher, 86%
- O=C(CO)Nc1ccc(/C=C/S(=O)(=O)N2CCC3(CC2)N=C(C2CCCCC2)NC3=O)c(C(F)(F)F)c1 [Compound 196, N-{4-[(E)-2-(2-cyclohexyl-4-oxo-1,3,8-triaza-spiro[4.5]dec-1-ene-8-sulfonyl)-vinyl]-3-trifluoromethyl-phenyl}-2-hydroxy-acetamide] — higher, 66%
- O=C1NC(CC2CCCCC2)=NC12CCN(S(=O)(=O)c1cccc(Cl)c1)CC2 [Compound 28, 8-(3-chloro-benzenesulfonyl)-2-cyclohexylmethyl-1,3,8-triaza-spiro[4.5]dec-1-en-4-one] — lower, 31%
- CC1(C)OCC(Cn2ccc3c(/C=C/S(=O)(=O)N4CCC5(CC4)N=C(C4CCOCC4)NC5=O)cccc32)O1 (stereo not shown) [Compound 246, 8-{(E)-2-[1-(2,2-dimethyl-[1,3]dioxolan-4-ylmethyl)-1H-indol-4-yl]-ethenesulfonyl}-2-(tetrahydro-pyran-4-yl)-1,3,8-triaza-spiro[4.5]dec-1-en-4-one] — lower, 39%
- Cc1cc(S(=O)(=O)NC(CO)(CO)CO)ccc1/C=C/S(=O)(=O)N1CCC2(CC1)N=C(c1cccc(C(F)(F)F)c1)NC2=O [Compound 595, N-(2-hydroxy-1,1-bis-hydroxymethyl-ethyl)-3-methyl-4-{(E)-2-[4-oxo-2-(3-trifluoromethyl-phenyl)-1,3,8-triaza-spiro[4.5]dec-1-ene-8-sulfonyl]-vinyl}-benzenesulfonamide] — higher, 63%
- Cc1cc(N2C(=O)CNC2=O)ccc1CCS(=O)(=O)N1CCC2(CC1)N=C(C1CC(C)(C)CC(C)(C)C1)NC2=O [Compound 952, 3-(3-methyl-4-{2-[4-oxo-2-(3,3,5,5-tetramethyl-cyclohexyl)-1,3,8-triaza-spiro[4.5]dec-1-ene-8-sulfonyl]-ethyl}-phenyl)-imidazolidine-2,4-dione] — higher, 95%
- Cc1cc2ccc1CCS(=O)(=O)N1CCC3(CC1)N=C(NC3=O)c1cc(cc(C(F)(F)F)c1)OCCC=CCCCN(C)C2=O [Compound 1406] — lower, 7.3%
- Cc1cc(C2=NC3(CCN(S(=O)(=O)/C=C/c4c(C)cc(C(=O)N5CCC(O)(CF)CC5)cc4C)CC3)C(=O)N2)c(C)cc1F [Compound 1239, 2-(4-Fluoro-2,5-dimethyl-phenyl)-8-{(E)-2-[4-(4-fluoromethyl-4-hydroxy-piperidine-1-carbonyl)-2,6-dimethyl-phenyl]-ethenesulfonyl}-1,3,8-triaza-spiro[4.5]dec-1-en-4-one] — higher, 91%
- Cc1cc(C(=O)N(C)C)ccc1CCS(=O)(=O)N1CCC2(CC1)N=C(c1ccc(C(F)(F)F)c(F)c1)NC2=O [Compound 96, 4-{2-[2-(3-fluoro-4-trifluoromethyl-phenyl)-4-oxo-1,3,8-triaza-spiro[4.5]dec-1-ene-8-sulfonyl]-ethyl}-3,N,N-trimethyl-benzamide] — higher, 70%
- Cc1cc(C(=O)N(C)C)ccc1CCS(=O)(=O)N1CCC2(CC1)N=C(c1cccc3c1OC(F)(F)O3)NC2=O [Compound 92, 4-{2-[2-(2,2-difluoro-benzo[1,3]dioxol-4-yl)-4-oxo-1,3,8-triaza-spiro[4.5]dec-1-ene-8-sulfonyl]-ethyl}-3,N,N-trimethyl-benzamide] — higher, 97%
- CC(=O)Nc1ccc(CCS(=O)(=O)N2CCC3(CC2)N=C(C2CCC(CCCCF)CC2)NC3=O)c(C)c1 (stereo not shown) [Compound 1296, N-[4-(2-{2-[4-(4-Fluoro-butyl)-cyclohexyl]-4-oxo-1,3,8-triaza-spiro[4.5]dec-1-ene-8-sulfonyl}-ethyl)-3-methyl-phenyl]-acetamide] — higher, 64%
- Cc1cc(N(C)C(=O)C(F)(F)F)cc(C)c1CCS(=O)(=O)N1CCC2(CC1)N=C([C@H]1CC[C@H](C)CC1)NC2=O [Compound 931, N-(3,5-Dimethyl-4-{2-[2-(4-methyl-cyclohexyl)-4-oxo-1,3,8-triaza-spiro[4.5]dec-1-ene-8-sulfonyl]-ethyl}-phenyl)-2,2,2-trifluoro-N-methyl-acetamide] — higher, 72%
- Cc1cc(N(C)C(N)=O)cc(C)c1/C=C/S(=O)(=O)N1CCC2(CC1)N=C(CCCCCCCCCc1ccccc1)NC2=O [Compound 1365, 1-(3,5-Dimethyl-4-{(E)-2-[4-oxo-2-(9-phenyl-nonyl)-1,3,8-triaza-spiro[4.5]dec-1-ene-8-sulfonyl]-vinyl}-phenyl)-1-methyl-urea] — higher, 108%
- Cc1ccccc1C#CS(=O)(=O)N1CCC2(CC1)N=C(C1CCCCC1)NC2=O [Compound 1376, 2-Cyclohexyl-8-(2-o-tolyl-ethynesulfonyl)-1,3,8-triaza-spiro[4.5]dec-1-en-4-one] — lower, 42%
- Cc1cc(N2C(=O)NC(C)(C)C2=O)ccc1/C=C/S(=O)(=O)N1CCC2(CC1)N=C(C1CCC(C)CC1)NC2=O (stereo not shown) [Compound 511, 5,5-dimethyl-3-(3-methyl-4-{(E)-2-[2-(4-methyl-cyclohexyl)-4-oxo-1,3,8-triaza-spiro[4.5]dec-1-ene-8-sulfonyl]-vinyl}-phenyl)-imidazolidine-2,4-dione] — lower, 29%
- CNc1cc(C)c(/C=C/S(=O)(=O)N2CCC3(CC2)N=C(CCCCCCCCC(F)(F)F)NC3=O)c(C)c1 [Compound 690, 8-[(E)-2-(2,6-Dimethyl-4-methylamino-phenyl)-ethenesulfonyl]-2-(9,9,9-trifluoro-nonyl)-1,3,8-triaza-spiro[4.5]dec-1-en-4-one] — higher, 86%
- Cc1cc(C(=O)N2CCC(OCCN(C)C)CC2)cc(C)c1/C=C/S(=O)(=O)N1CCC2(CC1)N=C(c1cccc(OC(F)(F)F)c1)NC2=O [Compound 407, 8-((E)-2-{4-[4-(2-dimethylamino-ethoxy)-piperidine-1-carbonyl]-2,6-dimethyl-phenyl}-ethenesulfonyl)-2-(3-trifluoromethoxy-phenyl)-1,3,8-triaza-spiro[4.5]dec-1-en-4-one] — lower, 49%

Same assay, conditions: HKRK-B7 cells; compound at 1×10^−3 M; cAMP produced as percentage of that produced by hPTH(1-34) at 100 nM; 0.1 µM

In the case of `C#C[C@H]1CC[C@@H](C2=NC3(CCN(S(=O)(=O)CCc4ccc(NC(C)=O)cc4C)CC3)C(=O)N2)CC1` [Compound 1074, N-(4-{2-[2-(4-ethynyl-cyclohexyl)-4-oxo-1,3,8-triaza-spiro[4.5]dec-1-ene-8-sulfonyl]-ethyl}-3-methyl-phenyl)-acetamide], the “cAMP production activity (%)” value is reported as 66%.
